Measurements reported in patent US20260023087A1, “A Novel Chemogenetic Tool Permitting Modulation of Intracellular pH” (ISTANBUL MEDIPOL UNIVERSITESI, priority 2023, published 2026).

Legend:
DsRed-stDCyD = target: T1, DsRed-stDCyD (Salmonella typhimurium, UniProt Q8ZNT7); test: SypHer3s live-cell imaging of intracellular pH in HEK293T cells expressing pH-Control, substrates administered; assay type: cell-based, human; settings: for selectivity test: enzyme response in comparison to βCDA: FIG. 1f; for ability to acidify cell compartments: cells expressing stDCyD
T1 construct: expressed in transfected cells; host or cells: HEK293 / HEK293T
Method: (§1) For live-cell imaging experiments, a HEPES-buffered physiological solution was used consisting of 2 mM CaCl2, 5 mM KCl, 138 mM NaCl, 1 mM MgCl2, 10 mM HEPES, 10 mM D-Glucose, and pH was adjusted to 7.43 using 1 M NaOH. For experiments with nigericin (N7143, Merck) and monensin (M5273, Merck), imaging buffered contained 5 mM KCl, 138 mM NaCl, 1 mM MgCl2, 20 mM HEPES, 10 mM D-Glucose, 0.2 mM EGTA and pH was adjusted to the desired value using either 1 M NaOH or 1M HCl. To prepare β-Chloro-D-alanine solutions, the powder was dissolved in imaging buffer and the pH was readjusted to 7.43.
(§2) Characterization studies have been performed in cultured human embryonic kidney cells (HEK293), grown in a high-glucose (4.5 g/L) complete medium including 10% FBS and 100 μg/ml streptomycin and 100 U/ml penicillin in a humidified incubator (37° C., 5% CO2). 24 hours before transfection, cells were seeded (˜3×10^5 cells per well) on a 30 mm glass coverslips No.1 (Glaswarenfabrik Karl Knecht Sondheim, Germany). At ˜70-80% confluency, cells were co-transfected with CMV-driven mammalian expression vectors (pLenti-MP2) encoding for differential targeted SypHer3s or DsRed-stDCyD enzymes using PolyJet transfection reagent according to the manufacturer's instructions. All imaging experiments were performed 24 h after transfection. HEK293T cells were cultured up to passage 30.
Widefield imaging experiments were performed on a Zeiss Axio Observer.Z1/7 (Carl Zeiss AG, Oberkochen, Germany) equipped with an LED light source Colibri 7 (423/44 nm, 469/38 nm, 555/30), PlanApochromat 20x/0.8 dry objective, Plan-Apochromat 40x/1.4 oil immersion objective, a monochrome CCD camera Axiocam 503. A custom-made pump-driven perfusion system was used to administrate and withdraw substrates to cells placed in a metal perfusion chamber (NGFI, Graz, Austria). SypHer signals were imaged by alternately exciting cells using a motorized dual-filter wheel equipped with beam splitters (FT455 (for SypHer low, F420) and FT495 (for SypHer high, F490)). Emissions were alternately collected using a bandpass filter (BP 525/50). DsRed-stDyCD emission was collected using the filter combinations FT570 (BS) and emission filter 605/70. During live-imaging data acquisition was performed using Zen Blue 3.1 Pro software (Carl Zeiss AG, Oberkochen, Germany). Confocal imaging was performed using a laser scanning confocal microscope LSM 800 (Zeiss, Germany) equipped with a Plan-Apochromat 40x/1.3 DIC (UV) VIS-IS oil immersion objective. SypHer biosensors were excited with a 488 nm and 405 nm laser, and emissions were collected using a 509 nm filter system. SypHer signals were acquired with an A GaAsP-PMT detector and 400-565 nm filter using a Multialkali-PMT detector. DsRed-stDCyD constructs were excited using a 561 nm laser, and the emission wavelength was captured between 616 and 700 nm. The digital detector gain for all channels was set at 1; detector gain was applied between 500 and 1000 V. Laser intensities were set between 0.90% and 0.95%, and the pinhole was set between 29 and 32 μm according to the expression level of the fluorescent proteins. Bright-field mode was imaged using a photodiode detector. Zen Blue 3.1 software (Zeiss, Germany) was used to determine regions of interest.

HEK293T cells [1] = test: Overcorrection of intracellular pH after acute acidification, with and without monensin and nigericin; assay type: cell-based, human; settings: 10 μM nigericin and 10 μM monensin together
Method: FIG. 7. Overcorrection of intracellular pH levels following acute acidification. (left) Real-time traces of HEK293T cells expressing SypHer and pH-Control in response to 1 mM βCDA in the presence (pink curve and (right) bars, n= 3/15) and absence (green curve and (right) bars n= 3/13) 10 μM nigericin and 10 μM monensin that permeabilize the plasma membrane. Student's t-test has been applied.
as §1
Widefield imaging experiments were performed on a Zeiss Axio Observer.Z1/7 (Carl Zeiss AG, Oberkochen, Germany) equipped with an LED light source Colibri 7 (423/44 nm, 469/38 nm, 555/30), PlanApochromat 20x/0.8 dry objective, Plan-Apochromat 40x/1.4 oil immersion objective, a monochrome CCD camera Axiocam 503. […]

HEK293T cells [2] = test: SypHer3s live-cell imaging of intracellular pH in cells without the enzyme; assay type: cell-based, human
Method: as §1
as §2, with “30. […]” for “30.”

[3] = system: mouse primary dorsal root ganglion (DRG) neurons; test: SypHer3s imaging in primary DRG neurons expressing pH-Control; assay type: cell-based; settings: different concentrations (10 or 1 mM, FIG. 1h)
Method: (§3) Primary Neuron Culture: WT C57BL/6 mice were euthanized via cervical dislocation. Bilateral DRGs from all segments were dissected and then put in an ice-cold RPMI 1640 medium (R0883, Gibco). For enzymatic dissociation, ganglia were incubated with 100 U/mL collagenases (C9407, Sigma) in a neural medium containing 2% B27 (17504-044, Gibco), 2 mM Glutamax-I (35050-61, Gibco), 100 U penicillin, and […] (15140-122, Gibco) in Neural Basal Medium (NBA, 10888-022, Gibco) at 37C, 5% CO2. Following a 40 min incubation time, the medium containing collagenase was removed, and the ganglia were washed using Hank's buffered salt solution (H9269, Sigma). The ganglia were further enzymatically dissociated using 1 mg/mL trypsin (25300-054, Gibco) in the neural medium for 15 min at 37° C., 5% CO2. At the end of incubation, […] DNAse (D4513, Sigma) was added to the trypsin solution cell suspension to inhibit free DNA fragments, and the tissues were triturated by pipetting to obtain single cells. 30 min after incubation at 37° C., 5% CO2, the cell suspension was spun at 120 g for 3 min and resuspended neural medium supplemented with 10% fetal calf serum and […] trypsin inhibitor (T6522, Sigma) to inhibit enzymatic activity. […]

[4] = system: mouse primary dorsal root ganglion (DRG) neurons; test: Membrane potential imaging with voltage sensor ASAP2s in DRG neurons co-expressing pH-Control; assay type: cell-based; settings: 10 mM βCDA versus high extracellular potassium (50 mM)
Method: as §3

T1 sequence (Q8ZNT7 whole entry, added parts left off): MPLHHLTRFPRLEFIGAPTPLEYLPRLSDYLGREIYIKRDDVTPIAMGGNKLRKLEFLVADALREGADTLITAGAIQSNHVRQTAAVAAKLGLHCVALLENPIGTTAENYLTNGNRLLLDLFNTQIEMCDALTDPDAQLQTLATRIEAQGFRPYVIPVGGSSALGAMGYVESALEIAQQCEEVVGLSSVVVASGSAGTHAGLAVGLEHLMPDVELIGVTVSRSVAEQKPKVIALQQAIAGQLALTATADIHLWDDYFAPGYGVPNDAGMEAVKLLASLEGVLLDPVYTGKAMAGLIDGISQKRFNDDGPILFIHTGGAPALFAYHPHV

N[C@H](CS)C(=O)O [D-Cysteine]
decrease in pHi (DsRed-stDCyD; 10 mM): marginal decrease in pHi

C[C@@H](N)C(=O)O [D-alanine]
selectivity test: enzyme response in comparison to βCDA (DsRed-stDCyD): remained agnostic | ability to acidify cell compartments (DsRed-stDCyD): not

CC[C@@]1([C@@H]2O[C@@H]([C@H]3O[C@@](O)(CO)[C@H](C)C[C@@H]3C)C[C@@H]2C)CC[C@H]([C@]2(C)CC[C@]3(C[C@H](O)[C@@H](C)[C@@H]([C@@H](C)[C@@H](OC)[C@H](C)C(=O)O)O3)O2)O1 [monensin]
intracellular pH overcorrection after withdrawal of 1 mM βCDA (HEK293T cells [1]): diminished

CO[C@@H]1C[C@@H](C[C@H]2CC[C@H](C)[C@H]([C@@H](C)C(=O)O)O2)O[C@]2(O[C@](C)([C@H]3CC[C@@](C)([C@@H]4O[C@@H]([C@H]5O[C@@](O)(CO)[C@H](C)C[C@@H]5C)C[C@@H]4C)O3)C[C@H]2C)[C@@H]1C [nigericin]
intracellular pH overcorrection after withdrawal of 1 mM βCDA (HEK293T cells [1]): diminished

N[C@H](CCl)C(=O)O [βCDA, β-chloro-D-alanine]
SypHer response of cells only expressing SypHer (HEK293T cells [2]; different levels of substrate (FIG. 1e, right panel)): remained unresponsive | SypHer3s response of wild-type cells without the enzyme (HEK293T cells [2]; same high-concentration treatment (13.4 mM, FIG. 1c)): marginal response | biosensor signal after withdrawal of substrate (DsRed-stDCyD; after recovery, indicates cellular alkalization (FIGS. 1c, 1g, 5a)): overshot the baseline | SypHer response to different levels of substrate (DsRed-stDCyD; cells expressing pH-Control, constitutive administration of different levels (FIG. 1e)): concentration-dependent and fully reversible SypHer response | intracellular acidification documented by SypHer3s (DsRed-stDCyD; cells expressing pH-Control, high concentrations of βCDA (13.4 mM, FIG. 1c)): robust intracellular acidification | ability to acidify cell compartments (DsRed-stDCyD): can acidify cell compartments | SypHer3s signals in DRG neurons [3]: robust SypHer3s signals | depolarization of membrane potential (ASAP2s) [4]: depolarized primary neurons even stronger than high extracellular potassium

N[C@@H](CCl)C(=O)O [βCLA, β-chloro-L-alanine]
selectivity test: enzyme response in comparison to βCDA (DsRed-stDCyD): marginal responses
